From patent US9156827B2, “Anticancer agent” (THE UNIVERSITY OF TOKYO, priority 2010, dated 2015)
Where a name gives a salt, the structure may show the parent alone.

What was measured:
pim-1 kinase = pim-1 kinase (Homo sapiens, UniProt P11309); experiment: Measurement of pim-1 kinase inhibitory activity (fluorescent substrate peptide, capillary electrophoresis); format: biochemical; conditions: 0.1 μM of each compound, 30 μM ATP, 1.5 μM substrate peptide, room temperature 2 hours
Method: Measurement of Pim-1 Kinase Inhibitory Activity
The result of the reaction was determined by quantifying the substrate and the phosphorylated reaction product separated by capillary electrophoresis based on difference in charges of the substances (EZ Reader II, Caliper Life Sciences, was used).

[1] = test system: human acute myeloid leukemia MV4.11 cells; experiment: Cell proliferation-suppressing activity, fluorescence method (Alamar Blue assay); format: cell-based; conditions: 48 h, compound 1 μM, Alamar Blue assay two days after inoculation, Table 5
Method: Measurement of Cell Proliferation-Suppressing Activity (Fluorescence Method)
Each compound was added to a 96-well microtiter plate at a final concentration of 1 μM, then human acute myeloid leukemia MV4.11 cells (10^4 cells) were inoculated, and the Alamar Blue assay was performed two days after the inoculation (measurement of fluorescence: Ex. 535 nm, Em. 590 nm) to measure cell proliferation-suppressing activity.

[2] = test system: Human acute myeloid leukemia MV4-11 cells; experiment: Cell proliferation-suppressing activity, chromogenic method (MTT assay); format: cell-based; conditions: 72 h, compound 1 μM, MTT assay three days after addition, Table 4
Method: Measurement of Cell Proliferation-Suppressing Activity (Chromogenic Method)
Human acute myeloid leukemia MV4-11 cells (10^4 cells) were inoculated on a 96-well microtiter plate, each compound was added at a final concentration of 1 μM 24 hours afterward, and MTT assay was performed three days after the addition of the compound to measure the cell proliferation-suppressing activity.

pim-1 kinase, sequence (P11309 whole entry): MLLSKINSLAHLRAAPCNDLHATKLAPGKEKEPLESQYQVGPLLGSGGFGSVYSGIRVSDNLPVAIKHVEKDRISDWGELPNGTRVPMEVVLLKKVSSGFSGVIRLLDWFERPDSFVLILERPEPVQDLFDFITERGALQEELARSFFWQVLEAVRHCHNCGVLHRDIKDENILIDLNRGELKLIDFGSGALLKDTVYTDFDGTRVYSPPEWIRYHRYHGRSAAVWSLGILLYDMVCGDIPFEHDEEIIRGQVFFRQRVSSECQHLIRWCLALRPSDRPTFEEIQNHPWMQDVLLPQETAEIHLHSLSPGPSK

SMILES	inhibition at 0.1 µM (pim-1 kinase; Table 1) [%]	inhibition at 1 µM [1] [%]	inhibition at 0.1 µM (pim-1 kinase; Table 2) [%]	inhibition at 1 µM [2] [%]
O=C1/C(=C/c2c[nH]c3ccccc23)Oc2c1cc(Cl)c(O)c2CN1CCNCC1 [Compound A12, (Z)-2-[(1H-Indol-3-yl)methylene]-5-chloro-6-hydroxy-7-(piperazin-1-ylmethyl)benzofuran-3(2H)-one dihydrochloride]	81	87	–	–
Cc1ccc2[nH]cc(/C=C3\Oc4c(ccc(O)c4CN4CCNCC4)C3=O)c2c1 [Compound A18, (Z)-6-Hydroxy-2-[(5-methyl-1H-indol-3-yl)methylene]-7-(piperazin-1-ylmethyl)benzofuran-3(2H)-one dihydrochloride]	95	71	–	–
Nc1ccc2c(/C=C3\Oc4c(ccc(O)c4CN4CCNCC4)C3=O)c[nH]c2c1 [Compound A25, (Z)-2-[(6-Amino-1H-indol-3-yl)methylene]-6-hydroxy-7-(piperazin-1-ylmethyl)benzofuran-3(2H)-one trihydrochloride]	83	20	–	–
Cc1ccc(S(=O)(=O)n2cc(/C=C3\Oc4c(ccc(O)c4CN4CCNCC4)C3=O)c3ccccc32)cc1 [Compound A33, (Z)-6-Hydroxy-7-(piperazin-1-ylmethyl)-2-[(1-tosyl-1H-indol-3-yl)methylene]benzofuran-3(2H)-one dihydrochloride]	94	32	–	–
O=C1/C(=C/c2cn(S(=O)(=O)c3ccc(C(F)(F)F)cc3)c3ccccc23)Oc2c1ccc(O)c2CN1CCNCC1 [Compound A34, (Z)-6-Hydroxy-7-(piperazin-1-ylmethyl)-2-({1-[4-(trifluoromethyl)phenylsulfonyl]-1H-indol-3-yl}methylene)benzofuran-3(2H)-one dihydrochloride]	98	58	–	–
O=C1/C(=C/c2cn(S(=O)(=O)c3ccc(Cl)cc3)c3ccccc23)Oc2c1ccc(O)c2CN1CCNCC1 [Compound A35, (Z)-{[1-(4-Chlorophenylsulfonyl)-1H-indol-3-yl]methylene}-6-hydroxy-7-(piperazin-1-ylmethyl)benzofuran-3(2H)-one dihydrochloride]	96	48	–	–
O=C1/C(=C/c2cn(S(=O)(=O)c3ccccc3Cl)c3ccccc23)Oc2c1ccc(O)c2CN1CCNCC1 [Compound A36, (Z)-2-{[1-(2-Chlorophenylsulfonyl)-1H-indol-3-yl]methylene}-6-hydroxy-7-(piperazin-1-ylmethyl)benzofuran-3(2H)-one dihydrochloride]	99	39	–	–
O=C1/C(=C/c2cn(S(=O)(=O)c3c(Cl)cccc3Cl)c3ccccc23)Oc2c1ccc(O)c2CN1CCNCC1 [Compound A37, (Z)-2-{[1-(2,6-Dichlorophenylsulfonyl)-1H-indol-3-yl]methylene}-6-hydroxy-7-(piperazin-1-ylmethyl)benzofuran-3(2H)-one dihydrochloride]	99	55	–	–
O=C1/C(=C/c2cn(S(=O)(=O)c3cccc(Cl)c3Cl)c3ccccc23)Oc2c1ccc(O)c2CN1CCNCC1 [Compound A38, (Z)-2-{[1-(2,3-Dichlorophenylsulfonyl)-1H-indol-3-yl]methylene}-6-hydroxy-7-(piperazin-1-ylmethyl)benzofuran-3(2H)-one dihydrochloride]	99	43	–	–
O=C1/C(=C/c2cn(S(=O)(=O)c3ccc(Cl)cc3Cl)c3ccccc23)Oc2c1ccc(O)c2CN1CCNCC1 [Compound A39, (Z)-2-{[1-(2,4-Dichlorophenylsulfonyl)-1H-indol-3-yl]methylene}-6-hydroxy-7-(piperazin-1-ylmethyl)benzofuran-3(2H)-one dihydrochloride]	99	51	–	–
O=C1/C(=C/c2c[nH]c3ncccc23)Oc2c1ccc(O)c2CN1CCOCC1 [Compound A44, (Z)-2-[(1H-Pyrrolo[2,3-b]pyridin-3-yl)methylene]-6-hydroxy-7-(morpholinomethyl)benzofuran-3(2H)-one]	27	46	–	–
O=C1CN(Cc2c(O)ccc3c2O/C(=C\c2c[nH]c4ncccc24)C3=O)CCN1 [Compound A45, (Z)-4-({2-[(1H-Pyrrolo[2,3-b]pyridin-3-yl)methylene]-6-hydroxy-3-oxo-2,3-dihydrobenzofuran-7-yl}methyl)piperazin-2-one]	83	15	–	–
COCCOc1ccc2c(c1CN1CCNCC1)O/C(=C\c1n[nH]c3ccccc13)C2=O [Compound B21, (Z)-2-[(1H-Indazol-3-yl)methylene]-6-(2-methoxyethoxy)-7-(piperazin-1-ylmethyl)benzofuran-3(2H)-one]	–	–	97	94
CCOc1ccc2c(c1CN1CCNCC1)O/C(=C\c1n[nH]c3ccccc13)C2=O [Compound B22, (Z)-2-[(1H-Indazol-3-yl)methylene]-6-ethoxy-7-(piperazin-1-ylmethyl)benzofuran-3(2H)-one]	–	–	96	90
CCCOc1ccc2c(c1CN1CCNCC1)O/C(=C\c1n[nH]c3ccccc13)C2=O [Compound B23, (Z)-2-[(1H-Indazol-3-yl)methylene]-7-(piperazin-1-ylmethyl)-6-propoxybenzofuran-3(2H)-one]	–	–	93	90
CCCCOc1ccc2c(c1CN1CCNCC1)O/C(=C\c1n[nH]c3ccccc13)C2=O [Compound B24, (Z)-2-[(1H-Indazol-3-yl)methylene]-6-butoxy-7-(piperazin-1-ylmethyl)benzofuran-3(2H)-one]	–	–	88	89
CC(C)Oc1ccc2c(c1CN1CCNCC1)O/C(=C\c1n[nH]c3ccccc13)C2=O [Compound B25, (Z)-2-[(1H-Indazol-3-yl)methylene]-6-isopropoxy-7-(piperazin-1-ylmethyl)benzofuran-3(2H)-one]	–	–	97	91
CC(C)COc1ccc2c(c1CN1CCNCC1)O/C(=C\c1n[nH]c3ccccc13)C2=O [Compound B26, (Z)-2-[(1H-Indazol-3-yl)methylene]-6-isobutoxy-7-(piperazin-1-ylmethyl)benzofuran-3(2H)-one]	–	–	78	86
O=C1/C(=C/c2n[nH]c3ccccc23)Oc2c1ccc(OCC1CC1)c2CN1CCNCC1 [Compound B27, (Z)-2-[(1H-Indazol-3-yl)methylene]-6-(cyclopropylmethoxy)-7-(piperazin-1-ylmethyl)benzofuran-3(2H)-one]	–	–	91	89
O=C1/C(=C/c2n[nH]c3ccccc23)Oc2c1ccc(OC1CCOCC1)c2CN1CCNCC1 [Compound B29, (Z)-2-[(1H-Indazol-3-yl)methylene]-7-(piperazin-1-ylmethyl)-6-(tetrahydro-2H-pyran-4-yloxy)benzofuran-3(2H)-one]	–	–	82	90
O=C1/C(=C/c2n[nH]c3ccccc23)Oc2c1ccc(OCCc1ccccc1)c2CN1CCNCC1 [Compound B30, (Z)-2-[(1H-Indazol-3-yl)methylene]-6-phenethoxy-7-(piperazin-1-ylmethyl)benzofuran-3(2H)-one]	–	–	89	78
O=C1/C(=C/c2n[nH]c3ccccc23)Oc2c1ccc(OCCOc1ccccc1)c2CN1CCNCC1 [Compound B31, (Z)-2-((1H-Indazol-3-yl)methylene)-6-(2-phenoxyethoxy)-7-(piperazin-1-ylmethyl)benzofuran-3(2H)-one]	–	–	95	84
COc1ccc2c(c1OC1CCNCC1)O/C(=C\c1n[nH]c3ccccc13)C2=O [Compound B35, (Z)-2-[(1H-Indazol-3-yl)methylene]-6-methoxy-7-(piperidin-4-yloxy)benzofuran-3(2H)-one]	–	–	97	95
COc1ccc2c(c1C(=O)N1CCNCC1)O/C(=C\c1n[nH]c3ccccc13)C2=O [Compound B37, (Z)-2-[(1H-Indazol-3-yl)methylene]-6-methoxy-7-(piperazine-1-carbonyl)benzofuran-3(2H)-one]	–	–	85	76
COc1cc2c(c(CN3CCNCC3)c1OC)O/C(=C\c1n[nH]c3ccccc13)C2=O [Compound B38, (Z)-2-[(1H-Indazol-3-yl)methylene]-5,6-dimethoxy-7-(piperazin-1-ylmethyl)benzofuran-3(2H)-one]	–	–	87	95
O=C1/C(=C/c2n[nH]c3ccccc23)Oc2c1cc1c(c2CN2CCNCC2)OCO1 [Compound B39]	–	–	95	92
